Reference: PMC5762315, “Inhibition of polo-like kinase 4 (PLK4): a new therapeutic option for rhabdoid tumors and pediatric medulloblastoma” (Oncotarget, 2017)
“And” between values parts separate entries of the source, which are not always exact repeats. Equal values may be shown once.

Assays:
Experiment in all cases: LanthaScreen Eu Kinase Binding Assay, panel of 486 biochemical kinase assays
various kinases [1] = molecular target: various kinases (Homo sapiens, UniProt Q13873); conditions: BMPR2
various kinases [2] = molecular target: various kinases (Homo sapiens, UniProt Q16832, N456S); conditions: DDR2 N456S
various kinases [3] = molecular target: various kinases (Homo sapiens, UniProt Q15208); conditions: kinase STK38 (NDR); LanthaScreen Binding
various kinases [4] = molecular target: various kinases (Homo sapiens, UniProt P52564); conditions: MAP2K6 (MKK6)
various kinases [5] = molecular target: various kinases (Homo sapiens, UniProt Q9HAZ1); conditions: CLK4
various kinases [6] = molecular target: various kinases (Homo sapiens, UniProt P10721, T670I/V559D); conditions: KIT V559D T670I
various kinases [7] = molecular target: various kinases (Homo sapiens, UniProt Q9Y616); conditions: IRAK3
various kinases [8] = molecular target: various kinases (Homo sapiens, UniProt Q13555); conditions: CAMK2G (CaMKII gamma)
various kinases [9] = molecular target: T1, various kinases (Homo sapiens, UniProt Q9H2K8); conditions: kinase TAOK3 (JIK); LanthaScreen Binding
T1 sequence (Q9H2K8 1-898): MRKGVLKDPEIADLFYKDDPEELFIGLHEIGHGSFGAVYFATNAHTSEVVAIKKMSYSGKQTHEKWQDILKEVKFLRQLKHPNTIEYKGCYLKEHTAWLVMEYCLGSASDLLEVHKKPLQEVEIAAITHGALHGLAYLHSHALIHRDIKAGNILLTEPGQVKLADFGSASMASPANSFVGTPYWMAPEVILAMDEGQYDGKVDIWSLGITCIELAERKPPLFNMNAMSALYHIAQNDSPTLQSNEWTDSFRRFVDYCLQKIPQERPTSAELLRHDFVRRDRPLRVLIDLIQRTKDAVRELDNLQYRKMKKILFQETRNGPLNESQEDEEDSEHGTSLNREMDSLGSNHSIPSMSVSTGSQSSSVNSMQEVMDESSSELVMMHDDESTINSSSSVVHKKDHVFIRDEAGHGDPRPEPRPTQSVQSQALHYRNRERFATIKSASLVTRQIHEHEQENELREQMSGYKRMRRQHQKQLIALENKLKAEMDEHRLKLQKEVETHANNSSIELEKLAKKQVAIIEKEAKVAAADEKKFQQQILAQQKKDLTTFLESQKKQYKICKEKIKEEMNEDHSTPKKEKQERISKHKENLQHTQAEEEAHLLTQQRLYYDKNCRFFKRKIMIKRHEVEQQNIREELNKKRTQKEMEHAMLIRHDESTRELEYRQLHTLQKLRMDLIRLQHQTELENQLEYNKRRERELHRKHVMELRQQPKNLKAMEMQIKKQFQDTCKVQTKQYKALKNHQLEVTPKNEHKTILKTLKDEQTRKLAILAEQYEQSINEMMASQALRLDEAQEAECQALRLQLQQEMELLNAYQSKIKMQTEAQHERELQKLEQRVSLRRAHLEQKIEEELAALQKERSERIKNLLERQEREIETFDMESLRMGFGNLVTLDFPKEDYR

various kinases [10] = molecular target: various kinases (Homo sapiens, UniProt P00519, M351T); conditions: ABL1 M351T
various kinases [11] = molecular target: various kinases (Homo sapiens, UniProt Q15746); conditions: MYLK (MLCK)
various kinases [12] = molecular target: various kinases (Homo sapiens, UniProt Q02750); conditions: MAP2K1 (MEK1)
various kinases [13] = molecular target: various kinases (Homo sapiens, UniProt Q99683); conditions: MAP3K5 (ASK1)
various kinases [14] = molecular target: various kinases (Homo sapiens, UniProt Q00536); conditions: CDK16 (PCTK1)/cyclin Y
various kinases [15] = molecular target: various kinases (Homo sapiens, UniProt Q9UEW8); conditions: kinase STK39 (STLK3); LanthaScreen Binding
various kinases [16] = molecular target: various kinases (Homo sapiens, UniProt Q92630); conditions: DYRK2
various kinases [17] = molecular target: various kinases (Homo sapiens, UniProt Q07912); conditions: kinase TNK2 (ACK); LanthaScreen Binding
various kinases [18] = molecular target: various kinases (Homo sapiens, UniProt P19525); conditions: EIF2AK2 (PKR)
various kinases [19] = molecular target: various kinases (Homo sapiens, UniProt Q9UPZ9); conditions: ICK
various kinases [20] = molecular target: various kinases (Homo sapiens, UniProt Q9NRM7); conditions: LATS2
various kinases [21] = molecular target: various kinases (Homo sapiens, UniProt P45984); conditions: MAPK9 (JNK2)
various kinases [22] = molecular target: various kinases (Homo sapiens, UniProt P07949, G691S); conditions: kinase RET G691S; LanthaScreen Binding
various kinases [23] = molecular target: various kinases (Homo sapiens, UniProt P27037); conditions: ACVR2A
various kinases [24] = molecular target: various kinases (Homo sapiens, UniProt Q16584); conditions: MAP3K11 (MLK3)
various kinases [25] = molecular target: various kinases (Homo sapiens, UniProt Q8IWQ3); conditions: BRSK2
various kinases [26] = molecular target: various kinases (Homo sapiens, UniProt Q5TCX8); conditions: MLK4
various kinases [27] = molecular target: various kinases (Homo sapiens, UniProt P10721, D816V); conditions: KIT D816V

Chain of various kinases (Homo sapiens, UniProt P07949, G691S) (P07949 29-1114 G691S): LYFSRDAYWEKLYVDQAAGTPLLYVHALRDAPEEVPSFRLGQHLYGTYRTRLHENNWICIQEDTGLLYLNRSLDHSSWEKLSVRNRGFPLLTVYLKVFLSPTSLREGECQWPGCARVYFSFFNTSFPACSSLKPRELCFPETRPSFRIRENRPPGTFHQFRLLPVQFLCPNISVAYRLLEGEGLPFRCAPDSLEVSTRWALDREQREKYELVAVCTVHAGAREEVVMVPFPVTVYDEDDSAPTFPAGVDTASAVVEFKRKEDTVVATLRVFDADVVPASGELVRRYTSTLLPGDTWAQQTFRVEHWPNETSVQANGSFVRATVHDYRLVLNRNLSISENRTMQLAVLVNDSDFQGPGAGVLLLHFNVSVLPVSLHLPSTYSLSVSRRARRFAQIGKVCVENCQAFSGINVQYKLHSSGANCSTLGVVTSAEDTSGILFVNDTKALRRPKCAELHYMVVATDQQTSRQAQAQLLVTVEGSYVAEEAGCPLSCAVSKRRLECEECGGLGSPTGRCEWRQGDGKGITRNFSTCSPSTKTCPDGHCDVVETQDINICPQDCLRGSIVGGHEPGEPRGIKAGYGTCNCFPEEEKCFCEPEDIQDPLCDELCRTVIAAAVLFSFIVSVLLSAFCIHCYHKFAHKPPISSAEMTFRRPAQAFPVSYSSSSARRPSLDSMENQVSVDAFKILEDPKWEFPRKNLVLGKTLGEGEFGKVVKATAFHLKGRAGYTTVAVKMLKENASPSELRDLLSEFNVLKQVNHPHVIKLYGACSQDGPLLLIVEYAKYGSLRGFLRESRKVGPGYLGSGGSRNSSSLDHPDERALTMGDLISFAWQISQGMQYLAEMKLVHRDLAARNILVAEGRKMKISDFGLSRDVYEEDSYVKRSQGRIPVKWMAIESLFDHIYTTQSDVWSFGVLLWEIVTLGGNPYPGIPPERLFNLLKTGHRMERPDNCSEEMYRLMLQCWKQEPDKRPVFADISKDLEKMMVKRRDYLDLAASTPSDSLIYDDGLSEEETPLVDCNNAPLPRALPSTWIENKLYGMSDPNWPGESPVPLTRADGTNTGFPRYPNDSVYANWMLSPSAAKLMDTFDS
Chain of various kinases (Homo sapiens, UniProt Q07912) (Q07912 whole entry): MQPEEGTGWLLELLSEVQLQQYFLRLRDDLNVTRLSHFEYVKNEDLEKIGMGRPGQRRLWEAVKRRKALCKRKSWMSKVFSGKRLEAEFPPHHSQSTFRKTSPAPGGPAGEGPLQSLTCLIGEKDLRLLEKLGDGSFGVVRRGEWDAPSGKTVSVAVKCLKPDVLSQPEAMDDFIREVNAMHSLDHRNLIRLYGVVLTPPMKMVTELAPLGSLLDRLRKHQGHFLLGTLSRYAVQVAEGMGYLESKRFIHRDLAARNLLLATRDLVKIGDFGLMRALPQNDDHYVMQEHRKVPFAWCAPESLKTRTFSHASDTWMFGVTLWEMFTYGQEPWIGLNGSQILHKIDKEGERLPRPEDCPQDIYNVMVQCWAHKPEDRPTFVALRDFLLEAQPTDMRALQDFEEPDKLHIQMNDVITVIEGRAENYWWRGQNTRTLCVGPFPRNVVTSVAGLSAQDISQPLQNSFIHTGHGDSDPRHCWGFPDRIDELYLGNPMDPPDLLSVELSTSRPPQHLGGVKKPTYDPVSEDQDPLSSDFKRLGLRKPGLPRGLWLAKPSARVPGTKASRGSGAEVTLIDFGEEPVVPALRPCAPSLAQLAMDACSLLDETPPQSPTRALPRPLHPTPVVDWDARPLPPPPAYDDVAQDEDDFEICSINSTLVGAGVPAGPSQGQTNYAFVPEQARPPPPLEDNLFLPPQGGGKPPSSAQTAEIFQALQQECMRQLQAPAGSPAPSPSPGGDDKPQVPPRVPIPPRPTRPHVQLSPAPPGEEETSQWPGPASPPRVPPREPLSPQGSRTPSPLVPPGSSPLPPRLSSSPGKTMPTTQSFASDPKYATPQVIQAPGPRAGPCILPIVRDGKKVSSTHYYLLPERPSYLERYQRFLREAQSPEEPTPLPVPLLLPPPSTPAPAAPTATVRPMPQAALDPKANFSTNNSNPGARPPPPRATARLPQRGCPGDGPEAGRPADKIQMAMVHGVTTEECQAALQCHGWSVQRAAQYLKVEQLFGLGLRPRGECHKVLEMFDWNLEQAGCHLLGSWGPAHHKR
Chain of various kinases (Homo sapiens, UniProt Q15208) (Q15208 whole entry): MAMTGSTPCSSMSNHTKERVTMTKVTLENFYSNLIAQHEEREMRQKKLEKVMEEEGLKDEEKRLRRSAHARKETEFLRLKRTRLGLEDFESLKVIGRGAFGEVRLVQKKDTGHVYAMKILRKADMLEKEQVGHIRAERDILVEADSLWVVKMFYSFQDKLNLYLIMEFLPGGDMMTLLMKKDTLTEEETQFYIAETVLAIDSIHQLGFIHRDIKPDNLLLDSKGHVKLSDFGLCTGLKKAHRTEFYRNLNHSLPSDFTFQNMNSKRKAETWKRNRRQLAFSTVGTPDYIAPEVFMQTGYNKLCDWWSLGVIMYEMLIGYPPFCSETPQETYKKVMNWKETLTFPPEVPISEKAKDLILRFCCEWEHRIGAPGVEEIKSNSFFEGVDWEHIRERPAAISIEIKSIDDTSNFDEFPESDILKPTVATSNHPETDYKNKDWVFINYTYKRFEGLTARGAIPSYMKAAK
Chain of various kinases (Homo sapiens, UniProt P45984) (P45984 whole entry): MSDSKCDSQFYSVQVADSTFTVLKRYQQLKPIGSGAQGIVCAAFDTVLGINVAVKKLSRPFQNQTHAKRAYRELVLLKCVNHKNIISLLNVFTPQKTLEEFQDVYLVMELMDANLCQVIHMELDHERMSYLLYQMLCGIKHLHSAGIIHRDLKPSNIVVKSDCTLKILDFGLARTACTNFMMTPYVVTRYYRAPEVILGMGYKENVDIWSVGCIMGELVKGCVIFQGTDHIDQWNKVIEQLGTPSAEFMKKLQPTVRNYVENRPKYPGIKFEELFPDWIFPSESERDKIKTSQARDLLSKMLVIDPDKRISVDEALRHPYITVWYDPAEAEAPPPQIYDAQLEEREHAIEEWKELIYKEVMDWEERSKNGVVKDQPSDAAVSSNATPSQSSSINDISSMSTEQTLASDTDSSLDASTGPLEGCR
Chain of various kinases (Homo sapiens, UniProt Q02750) (Q02750 whole entry): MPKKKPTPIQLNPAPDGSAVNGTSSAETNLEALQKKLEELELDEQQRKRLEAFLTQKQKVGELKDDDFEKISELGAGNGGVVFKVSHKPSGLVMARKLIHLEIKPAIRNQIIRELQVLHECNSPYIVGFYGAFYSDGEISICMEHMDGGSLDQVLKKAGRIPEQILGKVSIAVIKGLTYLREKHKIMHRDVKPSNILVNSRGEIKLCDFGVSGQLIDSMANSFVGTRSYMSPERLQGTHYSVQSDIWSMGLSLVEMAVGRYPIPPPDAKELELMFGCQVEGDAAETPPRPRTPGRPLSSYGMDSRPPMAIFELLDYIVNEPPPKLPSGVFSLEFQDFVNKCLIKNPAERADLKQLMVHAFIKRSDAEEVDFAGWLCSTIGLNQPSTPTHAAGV
Chain of various kinases (Homo sapiens, UniProt Q16584) (Q16584 whole entry): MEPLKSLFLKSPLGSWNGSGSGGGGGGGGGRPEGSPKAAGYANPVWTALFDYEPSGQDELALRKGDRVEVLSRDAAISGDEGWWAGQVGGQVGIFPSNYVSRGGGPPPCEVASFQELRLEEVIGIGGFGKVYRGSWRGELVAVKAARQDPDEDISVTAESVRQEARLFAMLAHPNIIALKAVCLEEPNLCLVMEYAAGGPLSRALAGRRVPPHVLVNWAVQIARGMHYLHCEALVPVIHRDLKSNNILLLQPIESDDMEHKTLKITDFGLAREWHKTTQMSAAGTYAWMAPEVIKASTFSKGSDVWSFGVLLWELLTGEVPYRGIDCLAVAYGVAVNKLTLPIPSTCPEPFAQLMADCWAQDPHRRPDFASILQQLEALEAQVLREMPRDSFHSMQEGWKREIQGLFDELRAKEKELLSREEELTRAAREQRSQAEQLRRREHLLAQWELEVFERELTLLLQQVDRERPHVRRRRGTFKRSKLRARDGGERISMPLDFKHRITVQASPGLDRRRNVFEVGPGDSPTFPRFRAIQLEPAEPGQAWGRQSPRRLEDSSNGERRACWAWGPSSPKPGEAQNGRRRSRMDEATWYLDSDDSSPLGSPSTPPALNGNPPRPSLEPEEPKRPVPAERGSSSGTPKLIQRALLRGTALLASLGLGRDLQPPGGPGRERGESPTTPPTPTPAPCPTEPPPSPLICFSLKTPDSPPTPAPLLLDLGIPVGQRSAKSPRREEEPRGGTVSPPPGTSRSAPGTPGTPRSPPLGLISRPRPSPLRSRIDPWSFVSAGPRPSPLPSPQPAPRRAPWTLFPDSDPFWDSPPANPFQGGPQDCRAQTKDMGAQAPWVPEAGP
Chain of various kinases (Homo sapiens, UniProt Q9UPZ9) (Q9UPZ9 whole entry): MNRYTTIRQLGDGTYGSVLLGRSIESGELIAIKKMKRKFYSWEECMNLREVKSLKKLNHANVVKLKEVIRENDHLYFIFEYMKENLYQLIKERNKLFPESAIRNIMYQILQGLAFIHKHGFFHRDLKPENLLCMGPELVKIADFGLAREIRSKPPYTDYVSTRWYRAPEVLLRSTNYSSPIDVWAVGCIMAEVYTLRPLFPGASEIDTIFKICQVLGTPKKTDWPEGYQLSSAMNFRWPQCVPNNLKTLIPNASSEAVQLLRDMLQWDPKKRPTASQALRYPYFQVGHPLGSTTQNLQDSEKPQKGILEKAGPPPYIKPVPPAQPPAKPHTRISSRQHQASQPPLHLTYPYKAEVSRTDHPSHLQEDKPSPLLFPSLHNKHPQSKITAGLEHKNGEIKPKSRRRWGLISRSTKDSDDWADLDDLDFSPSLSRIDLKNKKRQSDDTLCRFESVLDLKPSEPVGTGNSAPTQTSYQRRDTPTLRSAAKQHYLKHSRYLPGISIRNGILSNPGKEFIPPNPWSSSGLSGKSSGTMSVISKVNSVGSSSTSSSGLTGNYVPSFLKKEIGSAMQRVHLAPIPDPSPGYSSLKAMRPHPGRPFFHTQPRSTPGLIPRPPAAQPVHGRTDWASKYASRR

**Q.** What does the source list for `COc1ccc2c(c1)[C@]1(C[C@H]1c1ccc3c(/C=C/c4ccc(CN5C[C@@H](C)O[C@@H](C)C5)cc4)n[nH]c3c1)C(=O)N2` [CFI-400945]?
**A.** % Inhibition (various kinases [1]): 0% and 2%; % Inhibition (various kinases [2]): 77% and 74%; % Inhibition Average (various kinases [3]): 0%; % Inhibition Duplicate #1 (various kinases [3]): -5%; % Inhibition Duplicate #2 (various kinases [3]): 4%; % Inhibition (various kinases [4]): 14%; % Inhibition (various kinases [5]): 1% and -2%; % Inhibition (various kinases [6]): 10%; % Inhibition (various kinases [7]): 29%; % Inhibition (various kinases [8]): 50% and 36%; % Inhibition Average (various kinases [9]): 10%; % Inhibition Duplicate #1 (various kinases [9]): 14%; % Inhibition Duplicate #2 (various kinases [9]): 6%; % Inhibition (various kinases [10]): 78% and 79%; % Inhibition (various kinases [11]): 0% and -2%; % Inhibition (various kinases [12]): 9% and 8%; % Inhibition (various kinases [13]): -6% and -3%; % Inhibition (various kinases [14]): 10% and 9%; % Inhibition Average (various kinases [15]): 20%; % Inhibition Duplicate #1 (various kinases [15]): 18%; % Inhibition Duplicate #2 (various kinases [15]): 22%; % Inhibition (various kinases [16]): 1% and 10%; % Inhibition Average (various kinases [17]): 9%; % Inhibition Duplicate #1 (various kinases [17]): 11%; % Inhibition Duplicate #2 (various kinases [17]): 8%; % Inhibition (various kinases [18]): 3% and -4%; % Inhibition (various kinases [19]): 8% and 5%; % Inhibition (various kinases [20]): 16% and 14%; % Inhibition (various kinases [21]): -4% and -2%; % Inhibition Average (various kinases [22]): -1%; % Inhibition Duplicate #1 (various kinases [22]): -11%; % Inhibition Duplicate #2 (various kinases [22]): 9%; % Inhibition (various kinases [23]): 18% and 15%; % Inhibition (various kinases [24]): 7% and -2%; % Inhibition (various kinases [25]): -4% and -7%; % Inhibition (various kinases [26]): 8% and 4%; % Inhibition (various kinases [27]): -1% and 0%
